Reference: patent publication US11911374B2, “Methods and uses for treating cancer” (NELUM CORPORATION, priority 2019, dated 2024)
Read-outs that look alike come from different tables or passages of the source.

What was measured:
CYP2C8 = target: T1, CYP2C8 (Homo sapiens, UniProt P10632); conditions: cited from earlier work
T1 sequence (P10632 1-490): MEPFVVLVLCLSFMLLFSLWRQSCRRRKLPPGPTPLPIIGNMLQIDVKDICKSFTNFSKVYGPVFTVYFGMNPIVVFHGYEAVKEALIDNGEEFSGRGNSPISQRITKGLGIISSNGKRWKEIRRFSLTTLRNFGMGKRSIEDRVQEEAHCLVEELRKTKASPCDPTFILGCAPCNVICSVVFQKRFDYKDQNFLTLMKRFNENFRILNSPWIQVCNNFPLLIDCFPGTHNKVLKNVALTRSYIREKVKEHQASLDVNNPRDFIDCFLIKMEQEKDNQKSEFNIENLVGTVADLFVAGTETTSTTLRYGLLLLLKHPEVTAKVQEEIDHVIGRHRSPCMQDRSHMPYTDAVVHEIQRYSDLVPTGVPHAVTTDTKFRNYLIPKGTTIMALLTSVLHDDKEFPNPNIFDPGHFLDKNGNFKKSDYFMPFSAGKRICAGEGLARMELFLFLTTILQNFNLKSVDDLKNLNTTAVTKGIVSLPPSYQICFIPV

JH051 = JH051 PDAC subcutaneous xenograft model; assay type: in vivo, mice; conditions: JH 051, nab-paclitaxel 50 mg/kg 1dq4×3, TAK-441 25 mg/kg daily p.o.
Protocol: (§1) After several dose-finding studies to define the most feasible dose of nab-paclitaxel, a dose of 50 mg/kg 1dq4×3 was used. TAK-441 was selected and administered daily at the recommended dose (25 mg/kg daily p.o.). The study was conducted for 21 days. Based on the tumor volume values on experimental day 21, it was estimated the Tumor Growth Inhibition (TGI) factor as indicated in the Table 1.

[1] = rats; cited from earlier work
[2] = design: dose or concentration left out as unconfirmed; conditions: rats; cited from earlier work
[3] = tested on: castration-resistant prostate cancer; conditions: murine castration-resistant prostate cancer models; cited from earlier work
[4] = dogs, cited from earlier work
[5] = design: dose or concentration left out as unconfirmed; conditions: mice; cited from earlier work
Panc025 = Panc025 PDAC subcutaneous xenograft model; assay type: in vivo, mice; conditions: Panc 025, nab-paclitaxel 50 mg/kg 1dq4×3, TAK-441 25 mg/kg daily p.o.
Protocol: as §1, with “1. […] In order to evaluate the histological status of the stroma after treatment, Masson's Trichrome stained slides from Panc 163 and Panc 025 models were analyzed.” for “1.”

[6] = rats, cited from earlier work
CYP isozymes = conditions: cited from earlier work
Panc163 = Panc163 PDAC subcutaneous xenograft model; assay type: in vivo, mice; conditions: Panc 163, nab-paclitaxel 50 mg/kg 1dq4×3, TAK-441 25 mg/kg daily p.o.
Protocol: as §1, with “1. […] In order to evaluate the histological status of the stroma after treatment, Masson's Trichrome stained slides from Panc 163 and Panc 025 models were analyzed.” for “1.”

P-glycoprotein (P-gp) = target: T2, P-glycoprotein (P-gp) (Homo sapiens, UniProt P08183); conditions: cited from earlier work
T2 construct: endogenous in cells; host or cells: Caco-2 cells

Caco-2 cells = conditions: cited from earlier work
[7] = design: dose or concentration left out as unconfirmed; conditions: human beings; cited from earlier work
[8] = tested on: PAN-04 primary human pancreas xenograft; conditions: PAN-04 xenograft, cited from earlier work
[9] = tested on: medulloblastoma allograft; conditions: cited from earlier work
[10] = target: human neurotransmitter dopamine transporter (Homo sapiens, UniProt Q01959); design: dose or concentration left out as unconfirmed; conditions: cited from earlier work
Gli1 mRNA = conditions: MRC5 human embryonic fibroblasts; read-out: IC50, expression of Gli1 mRNA; cited from earlier work
[11] = cited from earlier work
[12] = tested on: Gli transcriptional activity; conditions: Gli-luc NIH3T3 cells; cited from earlier work
human Smo (hSmo) = target: T3, human Smo (hSmo) (Homo sapiens, UniProt Q99835); conditions: 293T cells overexpressing hSmo; read-out: IC50, inhibition of cyclopamine binding to human Smo; cited from earlier work
T3 construct: expressed in transfected cells; host or cells: 293T cells

[13] = cited from earlier work; remark: listed apart in the source
[14] = design: dose or concentration left out as unconfirmed; conditions: dogs; cited from earlier work
[15] = tested on: human PDE4 phosphodiesterase; design: dose or concentration left out as unconfirmed; conditions: cited from earlier work
Smo = conditions: preclinical pancreatic cancer models; cited from earlier work
[16] = exposures exceeding the predicted efficacious concentration

T2 sequence (P08183 whole entry): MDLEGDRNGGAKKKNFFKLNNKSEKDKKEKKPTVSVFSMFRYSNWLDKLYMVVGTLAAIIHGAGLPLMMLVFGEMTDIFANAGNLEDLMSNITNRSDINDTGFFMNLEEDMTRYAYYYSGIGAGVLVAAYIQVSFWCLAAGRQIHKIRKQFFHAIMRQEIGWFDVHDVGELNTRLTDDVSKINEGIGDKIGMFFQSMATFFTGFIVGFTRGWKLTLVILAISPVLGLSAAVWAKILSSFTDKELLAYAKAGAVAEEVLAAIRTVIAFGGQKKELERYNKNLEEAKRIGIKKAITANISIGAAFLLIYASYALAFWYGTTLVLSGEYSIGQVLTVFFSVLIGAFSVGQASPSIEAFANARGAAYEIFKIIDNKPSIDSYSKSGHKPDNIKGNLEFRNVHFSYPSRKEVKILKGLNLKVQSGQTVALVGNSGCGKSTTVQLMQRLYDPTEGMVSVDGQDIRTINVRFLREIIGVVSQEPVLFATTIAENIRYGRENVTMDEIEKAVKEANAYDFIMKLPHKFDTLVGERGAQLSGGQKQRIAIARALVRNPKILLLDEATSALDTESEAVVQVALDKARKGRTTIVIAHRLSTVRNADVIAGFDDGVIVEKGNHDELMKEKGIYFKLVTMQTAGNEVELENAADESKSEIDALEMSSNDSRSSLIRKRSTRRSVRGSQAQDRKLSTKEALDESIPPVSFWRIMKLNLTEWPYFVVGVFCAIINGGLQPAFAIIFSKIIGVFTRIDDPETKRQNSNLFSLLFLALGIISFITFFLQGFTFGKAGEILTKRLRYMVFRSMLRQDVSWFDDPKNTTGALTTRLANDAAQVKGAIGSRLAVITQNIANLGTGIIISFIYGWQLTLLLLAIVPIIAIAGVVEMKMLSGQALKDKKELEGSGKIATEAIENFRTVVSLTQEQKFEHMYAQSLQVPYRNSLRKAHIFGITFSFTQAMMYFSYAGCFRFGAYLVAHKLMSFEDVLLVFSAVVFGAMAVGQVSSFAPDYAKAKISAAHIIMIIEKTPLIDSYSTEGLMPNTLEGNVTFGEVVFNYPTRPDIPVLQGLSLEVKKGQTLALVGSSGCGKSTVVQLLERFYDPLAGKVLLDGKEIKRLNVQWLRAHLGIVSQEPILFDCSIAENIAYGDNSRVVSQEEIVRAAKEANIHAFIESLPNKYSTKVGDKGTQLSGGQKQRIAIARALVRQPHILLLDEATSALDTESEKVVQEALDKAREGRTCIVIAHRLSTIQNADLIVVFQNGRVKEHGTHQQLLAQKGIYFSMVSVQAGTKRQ
human neurotransmitter dopamine transporter, sequence (Q01959 whole entry): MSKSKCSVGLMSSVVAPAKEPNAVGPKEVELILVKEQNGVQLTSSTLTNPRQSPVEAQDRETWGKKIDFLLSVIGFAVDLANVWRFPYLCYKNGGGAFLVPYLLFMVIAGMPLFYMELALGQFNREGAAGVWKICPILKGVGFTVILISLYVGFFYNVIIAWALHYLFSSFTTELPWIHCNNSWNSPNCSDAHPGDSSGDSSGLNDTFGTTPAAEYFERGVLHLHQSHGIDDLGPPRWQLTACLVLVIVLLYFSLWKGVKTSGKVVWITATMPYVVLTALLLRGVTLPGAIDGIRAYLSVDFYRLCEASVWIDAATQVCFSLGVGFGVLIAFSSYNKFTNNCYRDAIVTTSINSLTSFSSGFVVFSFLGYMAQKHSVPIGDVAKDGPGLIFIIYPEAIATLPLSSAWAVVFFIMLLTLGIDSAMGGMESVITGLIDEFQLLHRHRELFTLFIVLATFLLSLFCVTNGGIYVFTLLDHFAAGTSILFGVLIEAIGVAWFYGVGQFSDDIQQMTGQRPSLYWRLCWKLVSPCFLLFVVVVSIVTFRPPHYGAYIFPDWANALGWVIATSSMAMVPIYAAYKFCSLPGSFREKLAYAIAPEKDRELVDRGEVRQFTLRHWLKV
T3 sequence (Q99835 28-787): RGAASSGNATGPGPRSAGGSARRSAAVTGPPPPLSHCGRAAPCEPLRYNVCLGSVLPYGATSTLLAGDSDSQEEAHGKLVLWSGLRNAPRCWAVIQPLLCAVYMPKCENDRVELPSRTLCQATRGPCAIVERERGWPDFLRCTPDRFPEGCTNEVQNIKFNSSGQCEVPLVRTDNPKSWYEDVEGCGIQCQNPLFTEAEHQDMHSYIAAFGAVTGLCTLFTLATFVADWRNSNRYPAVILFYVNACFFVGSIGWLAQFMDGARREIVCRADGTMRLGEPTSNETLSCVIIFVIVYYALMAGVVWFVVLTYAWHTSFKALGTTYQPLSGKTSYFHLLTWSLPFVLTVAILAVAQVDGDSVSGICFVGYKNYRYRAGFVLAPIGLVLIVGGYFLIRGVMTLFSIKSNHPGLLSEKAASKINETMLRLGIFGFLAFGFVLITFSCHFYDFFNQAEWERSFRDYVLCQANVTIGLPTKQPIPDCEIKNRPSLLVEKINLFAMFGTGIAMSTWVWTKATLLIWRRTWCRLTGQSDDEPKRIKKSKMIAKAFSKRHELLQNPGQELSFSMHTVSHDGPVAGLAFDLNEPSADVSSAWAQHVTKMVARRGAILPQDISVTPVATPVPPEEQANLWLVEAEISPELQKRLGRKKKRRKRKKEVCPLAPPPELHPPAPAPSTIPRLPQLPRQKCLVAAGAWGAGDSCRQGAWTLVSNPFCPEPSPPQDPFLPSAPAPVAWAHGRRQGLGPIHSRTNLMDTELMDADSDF

## CCc1cc2c(c(OCC(F)(F)F)c(C(=O)NC3CCN(C(=O)CO)CC3)n2C)c(=O)n1CC(=O)c1ccccc1 [TAK-441, 6-ethyl-N-[1-(hydroxyacetyl)piperidin-4-yl]-1-methyl-4-oxo-5-(2-oxo-2-phenylethyl)-3-(2,2,2-triflurorethoxy)-4,5-dihydro-1H-pyrrolo[3,2-c]pyrdine-2-carboxamide]
CYP2C8
  CYP2C8 inhibition: weak inhibitor
JH051
  TGI (%) day 21 (1 − [Tf − Ti]/[Cf − Ci]): 15%
[1]
  CL: 2.688 mL/min/kg
  distribution volume in steady state plasma (Vss): 0.6816 L/kg
  t %: 1.7 h
[2]
  binding to plasma proteins: 96.2%
[3]
  tumor progression / paracrine Hh ligand signaling: inhibit tumor progression
[4]
  dose-limiting toxicities: weight loss; decrease in food consumption; injuries of the gastrointestinal tract
[4]; [16]
  toxicological changes: decreased body weight; atrophy of the growth plate in the ribs and hair follicles; erosion or ulceration of the gastric mucosa; anemia; necrosis and hypocellularity of the bone marrow as well as inflammation and hemorrhage in the lung
[5]
  binding to plasma proteins: 99.7%
Panc025
  TGI (%) day 21 (1 − [Tf − Ti]/[Cf − Ci]): 42%
[6]
  other findings of unknown relevance to humans: gait alterations and tremors
[6]; [16]
  toxicological changes: decreased body weight; atrophy of the growth plate in the ribs and hair follicles; erosion or ulceration of the gastric mucosa; anemia; necrosis and hypocellularity of the bone marrow as well as inflammation and hemorrhage in the lung
CYP isozymes
  inhibitory effect on other CYP isozymes: no inhibitory effect
CYP isozymes; human liver microsomes
  time-dependent inhibition of CYP isoenzyme: not a time-dependent inhibitor
Panc163
  TGI (%) day 21 (1 − [Tf − Ti]/[Cf − Ci]): 61%
P-glycoprotein (P-gp)
  substrate for P-glycoprotein (P-gp) flow pump: bad substrate
Caco-2 cells
  Papp, A-to-B: 19.6 '10-6 cm/sec
[7]
  binding to plasma proteins: 87.7%
[8]; stromal tumor associated
  expression of Gli1 mRNA in vivo: dose-dependent inhibition
[8]; p<0.025
  tumor activity: significant dose-dependent tumor activity
[9]; Ohashi et al.
  Gli1 mRNA expression in tumor-associated stromal tissue: suppressed
[9]; medulloblastoma allograft, mouse tumor
  expression of Gli1 mRNA in vivo: dose-dependent inhibition
[9]; medulloblastoma allograft, p<0.025
  tumor activity: significant dose-dependent tumor activity
[9]; mouse medulloblastoma allograft model
  tumor growth treatment/control ratio: 3%
[10]
  inhibition of human dopamine transporter: 75%
Gli1 mRNA
  IC50: 1.9 nM
[11]; dogs
  CL: 6.632 mL/min/kg
  distribution volume in steady state plasma (Vss): 2.1813 L/kg
  t %: 9.8 h
[11]; fed dogs compared with fasting dogs
  increase of degree of absorption, fed versus fasting (Cmax and AUC0-24 h): approximately 2 times
[12]
  IC50: 4.4 nM
Human Smo (hSmo)
  IC50: 8.6 nM
[13]; a patient with basal cell carcinoma
  clinical response: partial response
[13]; after a single dose
  mean Tmax: 1.8 to 4.2 h
[13]; after several doses
  mean Tmax: 2.4 to 4.0 h
[13]; dose range 50-1600 mg
  pharmacokinetics based on plasma concentration-time AUC: linear over the entire dose range
[13]; patients
  dose-limiting toxicities: muscle spasms and fatigue
  inhibition of Gli1 gene expression in skin biopsies: observed with all doses analyzed
  median elimination half-life: 12.9 to 18.3 h
  tolerability: well-tolerated
[14]
  binding to plasma proteins: 79.6%
[15]
  inhibition of human PDE4 phosphodiesterase: 67%

## CC1=C2C[C@H]3[C@@H](CC[C@@H]4C[C@H](NS(C)(=O)=O)CC[C@@]43C)[C@@H]2CC[C@@]2(C1)O[C@@H]1C[C@H](C)CN[C@H]1[C@H]2C [IPI-926]
Smo
  stroma, tumor vascularization and effect of Gem chemotherapy: selective stromal elimination, better tumor vascularization, and greater effect of Gem chemotherapy
